The microsomal CLint is a measure of how fast metabolising enzymes remove a compound, apart from limits set by blood flow.

The first data set is described as follows: Metabolic stability in human liver microsomes assessed as intrinsic clearance per mg of protein. As to conditions: liver microsomes. In general terms: Liver microsomes are a subcellular fraction often used to study metabolism.
Take `CN1CC(=O)N2[C@H](c3ccc4c(c3)OCO4)c3[nH]c4ccccc4c3C[C@@H]2C1=O`: the microsomal CLint worked out at 49 µL/min/mg. Same read-out and setting: the result for `CC(=O)CC(c1ccc([N+](=O)[O-])cc1)c1c(O)c2ccccc2oc1=O` (stereo unspecified) [ACENOCOUMAROL] reads 37 µL/min/mg; that for `CC(C)COCC(CN(Cc1ccccc1)c1ccccc1)N1CCCC1` (stereo unspecified) [BEPRIDIL], 94 µL/min/mg; that for `c1ccc(C2(c3ccccc3)CC2C2=NCCN2)cc1` (stereo unspecified) [CIFENLINE], 28 µL/min/mg. Turning to `CN(C)CCCC1(c2ccc(F)cc2)OCc2cc(C#N)ccc21` (stereo unspecified) [CITALOPRAM], the intrinsic metabolic clearance (microsomal CLint) was found to be 36 µL/min/mg.

For the compound `c1ccc2c(c1)Sc1ccccc1N2CC1CN2CCC1CC2` (stereo unspecified) [MEQUITAZINE], the microsomal CLint was 34 µL/min/mg. Regarding `CN(C)CCOc1ccc(/C(=C(/CCCl)c2ccccc2)c2ccccc2)cc1` [TOREMIFENE], the microsomal CLint was determined as 31 µL/min/mg. On the same count and under the same terms, the result for `CC(/C=C/C(=O)NO)=C\[C@@H](C)C(=O)c1ccc(N(C)C)cc1` [TRICHOSTATIN] reads 107 µL/min/mg; that for `CN1[C@@H]2CC[C@H]1C[C@@H](OC(=O)c1c[nH]c3ccccc13)C2` [TROPISETRON], 22 µL/min/mg; that for `COc1ccc(C(CN(C)C)C2(O)CCCCC2)cc1` (stereo unspecified) [VENLAFAXINE], 59 µL/min/mg.

Still in this data set, the particulars now being: microsomes.
On to `COc1ccccc1OCCNCC(O)COc1cccc2[nH]c3ccccc3c12` (stereo unspecified) [CARVEDILOL], for which the microsomal CLint is 235 µL/min/mg. On to `CN(C)CCCN1c2ccccc2Sc2ccc(Cl)cc21` [CHLORPROMAZINE], for which the microsomal CLint was 117 µL/min/mg. Turning to `O=c1c(O)c(-c2ccc(O)cc2)oc2cc(O)cc(O)c12` [KAEMPFEROL], the microsomal CLint turned out to be 269 µL/min/mg. Same read-out and setting: the result for `CNC1(c2ccccc2Cl)CCCCC1=O` (stereo unspecified) [KETAMINE] reads 136 µL/min/mg; that for `CNCCCC12CCC(c3ccccc31)c1ccccc12` [MAPROTILINE], 31 µL/min/mg. Consider `Cc1ncc2n1-c1ccc(Cl)cc1C(c1ccccc1F)=NC2` [MIDAZOLAM], for which the microsomal CLint was 554 µL/min/mg.

The record behind these values is ChEMBL document CHEMBL1139373, “Metabolic soft spot identification and compound optimization in early discovery phases using MetaSite and LC-MS/MS validation” (J Med Chem, 2009).
